Format in all cases: cell-based
For one experiment, the system named is C-type virus. Kind of experiment: Monitoring of treated MJY-alpha cells for induction of C-type virus. To be noted: 0.5 to 48 hour pulse or 8 months culture in the tripeptide. From the text: The possible multifocal action of this antitumor tripeptide was a concern during examination of this compound. Since virus particles obtained by induction are infectious and oncogenic, PTT.119-treated cells were monitored for the presence of C-type virus. […] In addition, no diminution of the inhibitory effect of PTT.119 or enhancement of B-type retrovirus production was observed under these conditions.

Experiment [1] concerns MJY-alpha mammary tumor cell layers. Nature of the experiment: Morphology of treated cell layers (May-Grunwald-Giemsa). Conditions: 5 and 10 ug/ml for 15 to 60 minutes. On the procedure: Confluent MJY-alpha mammery tumor cell layers were treated with […] or diluent for 15 or 60 minutes, washed, and then incubated in growth medium. Representative cell layers were fixed and stained with May-Grunwald-Giemsastain from one (1) to seven (7) days after treatment as specified. Hemicysts or domes which are usually observed in short-term cultures of murine, MMTV-induced mammary tumors are not present in MJY-alpha cultures (FIG. 12a and b). […] Cellular pseudopodia were withdrawn and the cytoplasm appeared condensed around the nuclei (FIG. 12c and d). The most striking feature of exposure to high concentrations of PTT.119 was the ruffling of the plasma membrane and the formation of vesicles and blebs. […] This alteration was closely followed by visible increases in the cytosol volume or rarefaction of the cytoplasm (FIG. 12f). The degree of further pathological alterations of MJY-alpha mammary tumor cells was dependent on the dosage of PTT.119 and included lobulation and fragmentation of the nuclei, and the formation of multinuclear cells (FIG. 12f and h). […] Chromosomal condensation was not inhibited in multinucleated cells or in cells with highly lobulated or fragmented nuclei (FIG. 12h).

The test system of the next experiment is L1210 MTX. Kind of experiment: MTX and cisplatin cross-resistance test, 24 hour exposure.

For the molecule `CCOC(=O)[C@H](CCSC)NC(=O)[C@H](Cc1cccc(N(CCCl)CCCl)c1)NC(=O)[C@@H](N)Cc1ccc(F)cc1.Cl` [PTT.119, 3-(p-fluorophenyl)-L-alanyl-3-[m-bis(2-chloroethyl)aminophenyl]-L-alanyl-L-methionine ethyl ester hydrochloride], the “endogenous (C-type) virus production” value in the experiment on C-type virus is given as “no detection of any endogenous virus production”. Moreover, the “appearance of cell layers” value in experiment [1] is reported as “appeared unchanged”. Besides, the T.C.D.100 with L1210 MTX (L1210 MTX, 24 hours exposure) turned out to be 3.75 µM. In addition, in the experiment with L1210 MTX (Mus musculus, L1210, 24 h, read-out: T.C.D.50), the IC50 turned out to be 1940 nM.

These data come from US4740501A (priority 1985, dated 1988).
